Values quoted from earlier work in US9406119B2, “Estimating pharmacokinetic parameters in imaging” (INVICRO, LLC, priority 2010, dated 2016).

Columns and labels:
[1] = in vivo
[2] = target: T1, αvβ3 (Homo sapiens, UniProt P05106+P06756); details: parameter obtained from the literature
[3] = target: T1, αvβ3; details: parameter obtained from the literature; remark: listed apart in the source

T1 sequence (P06756 31-889 limits assumed): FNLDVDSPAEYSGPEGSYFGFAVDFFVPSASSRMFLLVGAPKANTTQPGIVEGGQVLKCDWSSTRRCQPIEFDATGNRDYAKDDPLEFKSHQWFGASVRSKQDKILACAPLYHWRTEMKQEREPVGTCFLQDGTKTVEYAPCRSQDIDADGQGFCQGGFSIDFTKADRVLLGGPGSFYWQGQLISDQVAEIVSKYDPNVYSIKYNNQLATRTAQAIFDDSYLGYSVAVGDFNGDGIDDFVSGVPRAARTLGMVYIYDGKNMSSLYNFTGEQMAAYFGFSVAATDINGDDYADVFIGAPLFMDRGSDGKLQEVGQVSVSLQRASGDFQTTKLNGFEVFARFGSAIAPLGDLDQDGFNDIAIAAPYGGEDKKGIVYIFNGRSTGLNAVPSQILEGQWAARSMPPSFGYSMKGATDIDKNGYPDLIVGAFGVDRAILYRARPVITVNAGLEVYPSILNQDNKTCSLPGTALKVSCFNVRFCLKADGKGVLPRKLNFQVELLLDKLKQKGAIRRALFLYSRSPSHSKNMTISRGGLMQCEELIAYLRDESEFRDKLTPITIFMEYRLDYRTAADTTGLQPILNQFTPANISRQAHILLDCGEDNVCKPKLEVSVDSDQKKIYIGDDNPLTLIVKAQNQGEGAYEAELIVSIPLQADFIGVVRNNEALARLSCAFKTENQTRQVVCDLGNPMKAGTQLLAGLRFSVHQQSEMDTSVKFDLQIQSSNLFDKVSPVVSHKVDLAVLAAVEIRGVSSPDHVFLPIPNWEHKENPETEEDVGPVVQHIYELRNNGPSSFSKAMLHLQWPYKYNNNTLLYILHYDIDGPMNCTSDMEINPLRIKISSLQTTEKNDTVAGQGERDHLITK
T1 sequence (P06756 891-1048 partner limits assumed): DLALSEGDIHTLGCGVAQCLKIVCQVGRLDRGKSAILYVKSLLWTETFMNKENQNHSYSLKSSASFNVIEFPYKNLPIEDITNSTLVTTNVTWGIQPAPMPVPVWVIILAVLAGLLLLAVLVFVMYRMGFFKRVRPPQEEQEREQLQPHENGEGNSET
T1 sequence (P05106 27-788): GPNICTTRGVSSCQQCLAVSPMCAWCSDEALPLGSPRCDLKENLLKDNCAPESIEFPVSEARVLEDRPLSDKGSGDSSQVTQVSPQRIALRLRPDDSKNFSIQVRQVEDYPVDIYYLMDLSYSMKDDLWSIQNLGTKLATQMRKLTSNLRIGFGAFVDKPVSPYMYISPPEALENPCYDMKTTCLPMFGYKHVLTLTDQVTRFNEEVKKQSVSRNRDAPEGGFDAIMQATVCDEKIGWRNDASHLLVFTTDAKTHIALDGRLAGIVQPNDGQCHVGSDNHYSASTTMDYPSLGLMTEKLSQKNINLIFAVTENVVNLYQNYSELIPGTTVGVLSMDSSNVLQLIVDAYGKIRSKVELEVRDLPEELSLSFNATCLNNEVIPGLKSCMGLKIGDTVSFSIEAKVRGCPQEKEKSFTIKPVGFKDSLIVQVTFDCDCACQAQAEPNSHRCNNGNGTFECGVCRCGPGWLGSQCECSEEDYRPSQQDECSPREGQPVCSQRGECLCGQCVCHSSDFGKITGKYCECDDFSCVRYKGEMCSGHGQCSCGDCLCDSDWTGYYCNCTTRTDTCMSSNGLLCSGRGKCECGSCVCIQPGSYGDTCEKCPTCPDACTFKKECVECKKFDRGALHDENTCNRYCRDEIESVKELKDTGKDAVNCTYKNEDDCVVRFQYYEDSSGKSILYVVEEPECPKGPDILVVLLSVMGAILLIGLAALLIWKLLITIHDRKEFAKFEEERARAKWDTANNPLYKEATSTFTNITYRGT

Q: Which results are given for ^18F-galacto-RGD [^18F-galacto RGD]?
A: A (fraction of fast phase of plasma clearance) [1]: 0.82; B (fraction of slow phase of plasma clearance) [1]: 0.18; α (fast plasma clearance rate constant) [1]: 0.0026 s⁻¹; β (slow plasma clearance rate constant) [1]: 0.00014 s⁻¹; ke,B (internalization rate constant of the CA/antigen bound complex) [2]: 1.48e-05 s⁻¹; kresid (rate of release of CA or CA signal from the intracellular compartment) [2]: 1.6e-05 s⁻¹; koff (CA/antigen dissociation rate constant) [3]: 0.0008 s⁻¹; kon (CA/antigen association rate constant) [3]: 10^5 M^−1s^−1; Kd ([3]; read-out: KD=koff/kon): 8 nM
